For test [1], the target named is T1, HIV-1 capsid protein (Human immunodeficiency virus type 1 group M subtype B, UniProt P12493).
T1 construct: aqueous solutions containing recombinant, ^15N-labeled HIV-1 capsid protein
In words: biochemical. In kind it is binding.
Protocol: Capsid protein ligands are also evaluated by NMR to determine their equilibrium dissociation constant from the capsid binding site.
Concentrated DMSO-d6 solutions of test compounds are prepared for NMR analysis. 2D ^1H-^15N HSQC NMR spectra are obtained for aqueous solutions containing recombinant, ^15N-labeled HIV-1 capsid protein and 10 microliters of added test compound. Data is obtained using a 600 MHz NMR instrument equipped with a cryoprobe. […] Binding is indicated by perturbation relative to capsid protein alone (^1HN δδ>0.1 ppm; ^15N δδ>0.5 ppm) of the chemical shifts of the following residues: Glu29, Lys30, Ala31, Phe32, Ser33, Glu35, Val36, Val59, Gly60, Gly61, His62, Gln63, Ala65, Met144 and Tyr145, all located at or near the apex of a helical bundle (helices 1, 2, 3, 4 and 7).
Equilibrium dissociation constants are calculated from 2D NMR data of selected capsid ligands. […] The chemical shift changes of perturbed by test compound binding are fit to 1:1 binding isotherms.

For test [2], the target named is CA (Human immunodeficiency virus type 1 group M subtype B, UniProt P12493). In words: mass action calculation of CAP-1 bound to CA/Gag in immature virions. Set-up: species or system HIV-1. As for the experimental part:
This is likely due to the high local concentration of Gag molecules in assembled virions (14 mM), which favors binding by ligands with even modest affinities, e.g., N-(3-chloro-4-methylphenyl)-N′-[2-[([5-[(dimethylamino)-methyl]-2-furyl]-methyl)-sulfanyl]ethyl]urea (CAP-1).
Thus conservatively assuming that cytosolic drug concentrations in the budding virus and cells are equal (100 μM), the percentage of viral CAP-1 molecules bound to CA can be estimated by standard mass action calculations which affords a value for the concentration of bound CAP-1 ([CA:CAP-1]) of 94 μM.

In general, Kd refers to a measure of binding affinity in units of concentration. Low readings indicate a tighter complex, high ones a looser complex. `Cc1ccc(NC(=O)NCCSCc2ccc(CN(C)C)o2)cc1Cl` [CAP-1, N-(3-chloro-4-methylphenyl)-N′-[2-[([5-[(dimethylamino)-methyl]-2-furyl]-methyl)-sulfanyl]ethyl]urea] had a Kd in test [1] of 820 ± 180 µM. Also, in test [1] (recombinant 15N-labeled HIV-1 capsid protein), the “binding to the HIV-1 capsid protein (HSQC chemical shift perturbation)” value is “site-specific binding”. In addition, the “CAP-1 molecules in immature virions bound to Gag” value in test [2] (100 μM dose) was 94%. For the same compound, the “concentration of bound CAP-1 ([CA:CAP-1])” value in test [2] (assuming drug concentration 100 μM, Gag in assembled virions 14 mM) was 94 µM.

Source of the values: patent publication US7183300B2, “Inhibitors of HIV-1 capsid formation: substituted aryl aminomethyl thiazole ureas and analogues thereof” (priority 2004, dated 2007).
